Columns and labels:
Test in all cases: standardised AUC of viability dose-response curve (72 h) (fraction (0-1)); higher = less growth inhibition (more resistant)
SW684 = system: SW684
Outline: (§1)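 Sarcoma cell lines in 384-well plates were treated in triplicate for 72 h with 2.5 µl of compound dilution series (compound-plate series 10 mM to 0.0002 mM, 1:3 steps). ATPLite viability was scaled 1 (full) to 0 (none) and fitted per drug and cell line with a four-parameter log-logistic model. The standardised area under the dose-response curve in log-dose space (modified drexplorer computeAUC) runs from 1 (no response) to 0 (full response).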

KHOS-NP = system: KHOS-NP
Outline: as §1

VA-ES-BJ = system: VA-ES-BJ
Outline: as §1

HS729 = system: HS729
Outline: as §1

KHOS-240S = system: KHOS-240S
Outline: as §1

A204 = system: A204
Outline: as §1

SK-ES-1 = system: SK-ES-1
Outline: as §1

SYO-1 = system: SYO-1
Outline: as §1

SW982 = system: SW982
Outline: as §1

MES-SA = system: MES-SA
Outline: as §1

SW1353 = system: SW1353
Outline: as §1

HT1080 = system: HT1080
Outline: as §1

G401 = system: G401
Outline: as §1

RD = system: RD
Outline: as §1

SK-LMS-1 = system: SK-LMS-1
Outline: as §1

SW872 = system: SW872
Outline: as §1

RD-ES = system: RD-ES
Outline: as §1

| Compound | standardised AUC (SW684) | standardised AUC (KHOS-NP) | standardised AUC (VA-ES-BJ) | standardised AUC (HS729) | standardised AUC (KHOS-240S) | standardised AUC (A204) | standardised AUC (SK-ES-1) | standardised AUC (SYO-1) | standardised AUC (SW982) | standardised AUC (MES-SA) | standardised AUC (SW1353) | standardised AUC (HT1080) | standardised AUC (G401) | standardised AUC (RD) | standardised AUC (SK-LMS-1) | standardised AUC (SW872) | standardised AUC (RD-ES) |
| --- | --- | --- | --- | --- | --- | --- | --- | --- | --- | --- | --- | --- | --- | --- | --- | --- | --- |
| Cc1nc(NC(=O)N2CCC[C@H]2C(N)=O)sc1-c1ccnc(C(C)(C)C(F)(F)F)c1 [ALPELISIB] | 0.887 | 0.964 | 0.852 | 0.78 | 0.895 | 0.848 | 0.799 | 0.814 | 0.935 | 0.818 | 0.909 | 0.963 | 0.845 | 0.86 | 0.867 | 0.819 | 0.793 |
| COc1cccc2c1C(=O)c1c(O)c3c(c(O)c1C2=O)C[C@@](O)(C(=O)CO)C[C@@H]3O[C@H]1C[C@H](N)[C@H](O)[C@H](C)O1 [DOXORUBICIN] | 0.796 | 0.694 | 0.574 | 0.638 | 0.588 | 0.532 | 0.439 | 0.47 | 0.537 | 0.496 | 0.669 | 0.6 | 0.577 | 0.609 | 0.672 | 0.655 | 0.472 |
| COc1cc2nccc(Oc3ccc(NC(=O)Nc4cc(C)on4)c(Cl)c3)c2cc1OC [TIVOZANIB] | 0.985 | 0.983 | 0.995 | 0.971 | 0.954 | 0.658 | 0.971 | 0.807 | 0.974 | 0.931 | 0.97 | 0.995 | 0.933 | 0.985 | 0.956 | 0.982 | 0.974 |
| CC(C)(C)c1cc(NC(=O)Nc2ccc(-c3cn4c(n3)sc3cc(OCCN5CCOCC5)ccc34)cc2)no1 [QUIZARTINIB] | 0.966 | 0.964 | 0.976 | 0.939 | 0.954 | 0.745 | 0.924 | 0.879 | 0.992 | 0.93 | 0.978 | 0.964 | 0.958 | 0.977 | 0.94 | 0.986 | 0.989 |
| Cn1cnc2c(F)c(Nc3ccc(Br)cc3F)c(C(=O)NOCCO)cc21 [BINIMETINIB] | 0.917 | 0.773 | 0.895 | 0.887 | 0.89 | 0.936 | 0.933 | 0.922 | 0.89 | 0.905 | 0.838 | 0.756 | 0.869 | 0.736 | 0.727 | 0.741 | 0.978 |
| CN1CCN(c2ccc3nc(-c4c(N)c5c(F)cccc5[nH]c4=O)[nH]c3c2)CC1 [DOVITINIB] | 0.902 | 0.917 | 0.865 | 0.821 | 0.81 | 0.748 | 0.749 | 0.717 | 0.792 | 0.81 | 0.86 | 0.906 | 0.833 | 0.904 | 0.904 | 0.823 | 0.82 |
| CC[C@H](Nc1ncnc2[nH]cnc12)c1nc2cccc(F)c2c(=O)n1-c1ccccc1 [IDELALISIB] | 0.761 | 0.978 | 0.934 | 0.905 | 0.968 | 0.939 | 0.963 | 0.949 | 0.971 | 0.957 | 0.897 | 0.99 | 0.931 | 0.982 | 0.919 | 0.937 | 0.968 |
| COCc1c(-c2cc3cc(C)cc(OC)c3s2)c2c(N)ncnn2c1CN1CCNC(=O)C1 [ROGARATINIB] | 0.974 | 0.987 | 0.962 | 0.776 | 0.854 | 0.755 | 0.907 | 0.751 | 0.93 | 0.85 | 0.851 | 0.999 | 0.807 | 0.958 | 0.952 | 0.943 | 0.934 |
| CCc1cc2c(cc1N1CCC(N3CCOCC3)CC1)C(C)(C)c1[nH]c3cc(C#N)ccc3c1C2=O [ALECTINIB] | 1 | 0.989 | 0.949 | 1 | 0.967 | 1 | 0.993 | 1 | 0.989 | 1 | 1 | 0.991 | 0.997 | 0.99 | 0.985 | 1 | 1 |
| N#CC[C@H](C1CCCC1)n1cc(-c2ncnc3[nH]ccc23)cn1 [RUXOLITINIB] | 0.948 | 0.977 | 0.973 | 0.951 | 0.944 | 0.951 | 0.981 | 0.978 | 0.936 | 0.944 | 0.982 | 0.994 | 0.97 | 0.992 | 0.987 | 0.945 | 0.989 |
| Cc1ccc(NC(=O)c2ccc(CN3CCN(C)CC3)cc2)cc1Nc1nc(-c2cccnc2)cs1 [MASITINIB] | 0.873 | 0.89 | 0.897 | 0.884 | 0.853 | 0.702 | 0.881 | 0.749 | 0.876 | 0.869 | 0.857 | 0.902 | 0.848 | 0.902 | 0.907 | 0.874 | 0.871 |
| Cc1cc(Nc2ncnc3ccc(NC4=NC(C)(C)CO4)cc23)ccc1Oc1ccn2ncnc2c1 [TUCATINIB] | 0.976 | 0.989 | 0.951 | 0.928 | 0.983 | 0.966 | 0.974 | 0.97 | 0.984 | 0.946 | 0.915 | 0.988 | 0.979 | 1 | 0.985 | 0.981 | 0.978 |
| C=CC(=O)N1CCC[C@@H](n2nc(-c3ccc(Oc4ccccc4)cc3)c3c(N)ncnc32)C1 [IBRUTINIB] | 0.997 | 0.966 | 0.995 | 0.941 | 0.954 | 0.967 | 0.991 | 0.892 | 0.992 | 0.948 | 0.85 | 1 | 0.973 | 0.997 | 0.978 | 0.934 | 0.994 |
| CO[C@H]1C[C@@H]2CC[C@@H](C)[C@@](O)(O2)C(=O)C(=O)N2CCCC[C@H]2C(=O)O[C@H]([C@H](C)C[C@@H]2CC[C@@H](OP(C)(C)=O)[C@H](OC)C2)CC(=O)[C@H](C)/C=C(\C)[C@@H](O)[C@@H](OC)C(=O)[C@H](C)C[C@H](C)/C=C/C=C/C=C/1C [RIDAFOROLIMUS] | 0.798 | 0.97 | 0.587 | 0.937 | 0.867 | 0.643 | 0.682 | 0.874 | 0.729 | 0.542 | 0.796 | 0.925 | 0.832 | 0.748 | 0.645 | 0.686 | 0.764 |
| CNC(=O)c1ccc(-c2cnc3ncc(Cc4ccc5ncccc5c4)n3n2)cc1F [CAPMATINIB] | 0.958 | 0.998 | 0.873 | 0.989 | 0.986 | 0.971 | 1 | 1 | 0.985 | 0.982 | 1 | 0.976 | 0.973 | 0.995 | 0.68 | 0.989 | 1 |
| CN1CCC(COc2cnc(-c3cccc(Cn4nc(-c5cccc(C#N)c5)ccc4=O)c3)nc2)CC1 [TEPOTINIB] | 0.983 | 0.954 | 0.898 | 0.928 | 0.963 | 0.985 | 0.97 | 0.945 | 0.985 | 0.98 | 0.987 | 0.972 | 0.978 | 0.998 | 0.732 | 0.972 | 0.979 |
| CC1(C)CNc2cc(NC(=O)c3cccnc3NCc3ccncc3)ccc21 [MOTESANIB] | 0.95 | 0.975 | 1 | 0.944 | 0.97 | 0.756 | 0.991 | 0.866 | 0.997 | 0.995 | 0.975 | 0.981 | 0.957 | 1 | 0.983 | 0.978 | 0.994 |
| COc1cc2/c(=N/c3ccc(Br)cc3F)nc[nH]c2cc1OCC1CCN(C)CC1 [VANDETANIB] | 0.954 | 0.961 | 0.955 | 0.921 | 0.879 | 0.843 | 0.853 | 0.757 | 0.836 | 0.912 | 0.906 | 0.968 | 0.925 | 0.852 | 0.894 | 0.886 | 0.911 |
| Cc1ccc(F)c(NC(=O)Nc2ccc(-c3cccc4[nH]nc(N)c34)cc2)c1 [LINIFANIB] | 0.996 | 0.955 | 1 | 0.884 | 0.983 | 0.74 | 0.964 | 0.879 | 1 | 0.973 | 0.993 | 0.994 | 0.948 | 1 | 1 | 0.972 | 0.994 |
| Cc1cnc(Nc2ccc(OCCN3CCCC3)cc2)nc1Nc1cccc(S(=O)(=O)NC(C)(C)C)c1 [FEDRATINIB] | 0.825 | 0.886 | 0.768 | 0.756 | 0.766 | 0.746 | 0.691 | 0.685 | 0.677 | 0.756 | 0.779 | 0.86 | 0.784 | 0.763 | 0.847 | 0.754 | 0.733 |
| CC(=O)Nc1cccc(-n2c(=O)n(C3CC3)c(=O)c3c(Nc4ccc(I)cc4F)n(C)c(=O)c(C)c32)c1 [TRAMETINIB] | 0.714 | 0.523 | 0.756 | 0.761 | 0.783 | 0.782 | 0.958 | 0.825 | 0.897 | 0.827 | 0.709 | 0.577 | 0.651 | 0.65 | 0.533 | 0.619 | 0.989 |
| CC(C)N1CCN(Cc2cnc(-c3cc(-c4cccc5[nH]ccc45)cc4[nH]ncc34)o2)CC1 [NEMIRALISIB] | 0.726 | 0.998 | 0.952 | 0.906 | 0.944 | 0.908 | 0.935 | 0.916 | 0.916 | 0.95 | 0.917 | 0.996 | 0.947 | 0.924 | 0.944 | 0.919 | 0.95 |
| Cc1nc(-c2cn3c(n2)-c2ccc(-c4cnn(C(C)(C)C(N)=O)c4)cc2OCC3)n(C(C)C)n1 [TASELISIB] | 0.702 | 0.975 | 0.727 | 0.77 | 0.843 | 0.675 | 0.68 | 0.84 | 0.826 | 0.664 | 0.855 | 0.989 | 0.744 | 0.727 | 0.771 | 0.76 | 0.675 |
| COc1cc2c(Oc3ccc4[nH]c(C)cc4c3F)ncnc2cc1OCCCN1CCCC1 [CEDIRANIB] | 0.995 | 0.98 | 1 | 0.929 | 0.939 | 0.622 | 0.917 | 0.743 | 0.959 | 0.91 | 0.922 | 0.996 | 0.797 | 0.966 | 0.966 | 0.986 | 0.987 |
